From publication PMC12295927, “Design, Synthesis, and Testing of 1,2,3-Triazolo-Quinobenzothiazine Hybrids for Cytotoxic and Immunomodulatory Activity” (International Journal of Molecular Sciences, 2025)
Like-named read-outs stand apart in the source and are kept apart here.

How the values were obtained:
MDM2 gene = assay: RT-qPCR MDM2 gene expression in BEAS-2B; assay type: cell-based, Human; details: 24 h; for fold induction at 100 µM: Homo sapiens, reference gene RPL41, vs untreated control, read-out: Relative level of expression, MDM2 gene
Protocol: (§1) Real-time polymerase chain reaction was performed for the reference gene RPL41 (ribosomal protein L41) and the tested genes: BCL2, AIFM2, MDM2, IL6 and IL8. […] The BEAS-2B line was selected for the experiment. The expression level of selected genes was measured after 24 h of incubation with the tested substances MJ1–MJ20 at a concentration of 100 μM (Table 3).
The RT-qPCR experiment was performed for the BEAS-2B cell line. In this experiment, the MDM2 gene was studied and RPL41 was used as reference gene (Figure 15).
(§2) Gene expression studies used quantitative RT-qPCR to assess the effect of the tested quinobenzothiazines (MJ1–MJ20) on the expression of apoptosis-related genes (BCL2, AIFM2, MDM2) and pro-inflammatory cytokines (IL6, IL8) (Table 4).
(§3) BEAS-2B and HCT116 cells were seeded in 6-well plates at 2 × 10^5 cells per well and cultured in RPMI-1640 (BEAS-2B) or DMEM (HCT116) medium supplemented with 10% FBS and 1% penicillin/streptomycin at 37 °C, 5% CO2 and 95% humidity. After 24 h of incubation, the tested compounds were added at a concentration of 100 µM. After 24 h, the medium was removed from the cells, washed with PBS solution, 0.5 mL of trypsin was added per well and after 5 min it was neutralized with medium. The obtained cell suspension was centrifuged for 3 min at 2000 rpm, the supernatant was removed, and the obtained pellet was suspended in 400 µL of phenozol. Samples were frozen at −20 °C and stored until further experiment and RNA isolation.
(§4) Total RNA was isolated from cells using the A&A Biotechnology Total RNA Mini kit according to the manufacturer’s protocol. RNA quality and quantity were assessed using a NanoDrop 2000 spectrophotometer at 260/280 nm. Reverse transcription was performed using the protocol (EURx NG dART RT Kit) to obtain cDNA. After incubation, samples were placed in a freezer (−20 °C) and stored until further analysis.
(§5) The experiment was performed according to the protocol (Brilliant III Ultra Fast SYBR® Green QPCR Master Mix, Quick Reference Guide for the Bio-Rad CFX96 Real-Time PCR Detection System). RT-qPCR reaction was performed using specific primers for target genes (BCL2, AIFM2, MDM2, IL6, IL8). Gene expression was normalized to the expression of the reference gene RPL41. Reaction profiles and results were performed using Bio-Rad CFX Maestro 1.1 software from Bio-Rad. Analysis and calculations of the results obtained during RT-qPCR were performed using Microsoft Excel.
(§6) The results were analyzed using the R = 2^−ΔΔCt method, which allows for determining the relative level of gene expression (R) compared to the control. Each experiment was performed in three technical and biological replicates. RT-qPCR allowed for precise assessment of changes in the expression of genes related to the processes of apoptosis and inflammatory response under the influence of quinobenzothiazines, which allowed for identifying their potential mechanisms of action at the molecular level.

IL8 gene = assay: RT-qPCR IL8 gene expression in BEAS-2B; assay type: cell-based; details: Homo sapiens, 24 h, reference gene RPL41, vs untreated control, read-out: Relative level of expression, IL8 gene
Protocol: as §1
(§7) The RT-qPCR experiment was performed for the BEAS-2B cell line. In this experiment, the IL6 and IL8 genes were studied and RPL41 was used as a reference gene (Figure 17 and Figure 18).
as §2, §3, §4, §5, §6

IL6 gene = assay: RT-qPCR IL6 gene expression in BEAS-2B; assay type: cell-based, Human; details: 24 h; for fold induction at 100 µM: Homo sapiens, reference gene RPL41, vs untreated control, read-out: Relative level of expression, IL6 gene
Protocol: as §1, §7, §2, §3, §4, §5, §6

BCL2 gene = assay: RT-qPCR BCL2 gene expression in BEAS-2B; assay type: cell-based, Human; details: 24 h; for fold induction at 100 µM: Homo sapiens, reference gene RPL41, vs untreated control, read-out: Relative level of expression, BCL2 gene
Protocol: as §1
The RT-qPCR experiment was performed for the BEAS-2B cell line. In this experiment, the BCL2 gene was studied, and RPL41 was used as the reference gene (Figure 14).
as §2, §3, §4, §5, §6

BEAS-2B = assay: Alamar Blue cytotoxicity test, BEAS-2B; assay type: cell-based, Human; details: 24 h incubation, read-out: IC50 values for BEAS-2B line
Protocol: The cytotoxicity of the tested chemical compounds MJ1–MJ20 was tested using the Alamar Blue test. The experiment was conducted on cell lines BEAS-2B (Figure 7), HCT116 (Figure 8), U2OS (Figure 9), MCF7 (Figure 10), SH-SY5Y (Figure 11), NHDF (Figure 12), and A549 (Figure 13). Cells were seeded in 96-well plates and incubated with the tested compounds for 24 h. The test result is the IC50 parameter, which is a measure of cytotoxic activity expressed by the concentration of the substance that causes the death of half of the analyzed cells compared to the control.
In cytotoxicity studies, the Alamar Blue test was used, which is based on the ability of living cells to reduce the non-fluorescent dye resazurin to fluorescent resorufin, which reflects the metabolic activity of cells. BEAS-2B, NHDF, HCT116, MCF7, A549, SH-SY5Y and U2OS cell lines were cultured under standard conditions, in DMEM medium supplemented with 10% FBS and 1% penicillin/streptomycin, at 37 °C, 5% CO2 and 95% humidity. Cells were seeded in 96-well plates at 1 × 10^4 cells per well and incubated for 24 h. Then, the tested compounds (MJ1–MJ20) were added at different concentrations (from 6.25 µM to 100 µM). The control contained cells untreated with the tested compounds. After 24 h of incubation, 10 µL of Alamar Blue solution was added to each well and incubated for another 2–4 h under the same conditions. The signal was measured spectrophotometrically at wavelengths of 570 nm (for resorufin) and 600 nm (for resazurin) or optionally fluorimetrically, using an excitation maximum of 570 nm and an emission maximum of 585 nm. The results were presented as percentage of cell survival relative to the control, calculating the ratio of absorbance or fluorescence of the sample to the control value. The Alamar Blue assay, due to its sensitivity and non-toxicity, allows for an accurate assessment of metabolic activity and cell survival in response to the tested quinobenzothiazines.

AIFM2 gene = assay: RT-qPCR AIFM2 gene expression in BEAS-2B; assay type: cell-based, Human; details: Homo sapiens, 24 h, reference gene RPL41, vs untreated control, read-out: Relative level of expression, AIFM2 gene
Protocol: as §1
The RT-qPCR experiment was performed for the BEAS-2B cell line. In this experiment, the AIFM2 gene was studied and RPL41 was used as reference gene (Figure 16).
as §2, §3, §4, §5, §6

Row | SMILES | fold induction at 100 µM (MDM2 gene) | fold induction at 100 µM (IL8 gene) | fold induction at 100 µM (IL6 gene) | fold induction at 100 µM (BCL2 gene) | IC50 (BEAS-2B; Homo sapiens, 24 h) [µM] | fold induction at 100 µM (AIFM2 gene) | MDM2 expression increase (MDM2 gene; 100 μM, compared to control) [fold] | IC50 (BEAS-2B) [µM] | IL6 expression increase (IL6 gene; 100 μM, compared to control) [fold] | BCL2 expression increase (BCL2 gene; 100 μM, compared to control) [fold]
1 | CSc1ccc2c(c1)Sc1cc3ccccc3nc1N2Cc1cn(Cc2ccc(Cl)cc2)nn1 [MJ18, 9-Methylthio-6-[(1-(4-chlorobenzyl)-1H-1,2,3-triazol-4-yl)methyl]-quino[3,2-b]-benzo[1,4]thiazine] | 7.1 | 4 | 20.5 | 41.5 | 74.1 | 1.7 |  |  |  | 
2 | N#Cc1ccc(Cn2cc(CN3c4ccc(F)cc4Sc4cc5ccccc5nc43)nn2)cc1 [MJ9, 4-((4-((9-Fluoroquino [3,2-b]benzo[1,4]thiazin-6-yl)methyl)-1H-1,2,3-triazol-1-yl)methyl)-benzonitrile] | 5.6 | 0.9 | 4.3 | 9.8 | 73 | 4.5 |  |  |  | 
3 | N#Cc1ccc(Cn2cc(CN3c4ccc(Cl)cc4Sc4cc5ccccc5nc43)nn2)cc1 [MJ14, 4-((4-((9-Chloroquino[3,2-b]benzo[1,4]thiazin-6-yl)methyl)-1H-1,2,3-triazol-1-yl)methyl)-benzonitrile] | 3.7 | 3.6 | 8.8 | 43 | 78.4 | 1.2 |  |  |  | 
4 | Clc1ccc2c(c1)Sc1cc3ccccc3nc1N2Cc1cn(Cc2ccccc2)nn1 [MJ11, 9-Chloro-6-[(1-benzyl-1H-1,2,3-triazol-4-yl)-methyl]-quino[3,2-b]benzo[1,4]thiazine] | 4.6 | 1.4 | 5.7 | 49.9 | 88.1 | 0.8 |  |  |  | 
5 | Fc1ccc2c(c1)Sc1cc3ccccc3nc1N2Cc1cn(CSc2ccccc2)nn1 [MJ10, 9-Fluoro-6-((1-((phenylthio)methyl)-1H-1,2,3-triazol-4-yl)methyl)-quino[3,2-b]-benzo[1,4]thiazine] | 3.6 | 5.7 | 5.6 | 10.6 | 72.3 | 3.1 |  |  |  | 
6 | CSc1ccc2c(c1)Sc1cc3ccccc3nc1N2Cc1cn(Cc2ccc(F)cc2)nn1 [MJ17, 9-Methylthio-6-((1-(4-fluorobenzyl)-1H-1,2,3-triazol-4-yl)methyl)-quino[3,2-b]-benzo[1,4]thiazine] | 11 | 5.7 | 28 | 33.9 | 72.6 | 2.5 | 11.0 |  |  | 
7 | Fc1ccc(Cn2cc(CN3c4ccc(Cl)cc4Sc4cc5ccccc5nc43)nn2)cc1 [MJ12, 9-Chloro-6-((1-(4-fluorobenzyl)-1H-1,2,3-triazol-4-yl)methyl)-quino[3,2-b]benzo-[1,4]thiazine] | 3.8 | 4.9 | 6.2 | 25.9 | 75.6 | 0.6 |  | 75.6 |  | 
8 | CSc1ccc2c(c1)Sc1cc3ccccc3nc1N2Cc1cn(CSc2ccccc2)nn1 [MJ20, 9-Methylthio-6-((1-((phenylthio)methyl)-1H-1,2,3-triazol-4-yl)methyl)-quino[3,2-b]benzo[1,4]thiazine] | 7.7 | 6.6 | 83.4 | 69.4 | 83.7 | 2.8 |  |  | 83.4 | 69.4
9 | c1ccc(SCn2cc(CN3c4ccccc4Sc4cc5ccccc5nc43)nn2)cc1 [MJ5, 6-((1-((Phenylthio)methyl)-1H-1,2,3-triazol-4-yl)methyl)-quino[3,2-b]benzo[1,4]thiazine] | 4.8 | 0.1 | 2.7 | 5 | 73 | 1.9 |  |  |  | 
10 | Fc1ccc(Cn2cc(CN3c4ccc(F)cc4Sc4cc5ccccc5nc43)nn2)cc1 [MJ7, 9-Fluoro-6-((1-(4-fluorobenzyl)-1H-1,2,3-triazol-4-yl)methyl)-quino[3,2-b]benzo[1,4]thiazine] | 4.6 | 2.6 | 3.5 | 7.5 | 73.6 | 3.3 |  |  |  | 
11 | Clc1ccc(Cn2cc(CN3c4ccc(Cl)cc4Sc4cc5ccccc5nc43)nn2)cc1 [MJ13, 9-Chloro-6-[(1-(4-chlorobenzyl)-1H-1,2,3-triazol-4-yl)methyl]-quino[3,2-b]benzo-[1,4]thiazine] | 2.3 | 1.7 | 6.5 | 23.4 | 85.2 | 0.3 |  |  |  | 
12 | N#Cc1ccc(Cn2cc(CN3c4ccccc4Sc4cc5ccccc5nc43)nn2)cc1 [MJ4, 4-((4-((Quino[3,2-b]benzo[1,4]thiazin-6-yl)methyl)-1H-1,2,3-triazol-1-yl)methyl)benzonitrile] | 4.3 | 0.8 | 3.1 | 9.3 | 64.5 | 1.4 |  |  |  | 
13 | CSc1ccc2c(c1)Sc1cc3ccccc3nc1N2Cc1cn(Cc2ccccc2)nn1 [MJ16, 9-Methylthio-6-[(1-benzyl-1H-1,2,3-triazol-4-yl)-methyl]-quino[3,2-b]benzo[1,4]thiazine] | 6.1 | 5.1 | 11.4 | 41.3 | 84.7 | 1.3 |  |  |  | 
